Test results: ChEMBL document CHEMBL3792365, “Dioxol and dihydrodioxin analogs of 2- and 3-phenylacetonitriles as potent anti-cancer agents with nanomolar activity against a variety of human cancer cells” (2016)

Tests used:
Assay type in all cases: functional
[1] = Growth inhibition of human OVCAR5 cells at 10 uM after 48 hrs by sulforhodamine B assay; details: OVCAR-5, 48 h, values are per cent of control
MDA-MB-435 = test: Growth inhibition of human MDA-MB-435 cells at 10 uM after 48 hrs by sulforhodamine B assay; details: MDA-MB-435, 48 h, values are per cent of control
[2] = Growth inhibition of human TK10 cells at 10 uM after 48 hrs by sulforhodamine B assay; details: TK-10, 48 h, values are per cent of control
[3] = Growth inhibition of human DU145 cells at 10 uM after 48 hrs by sulforhodamine B assay; details: DU-145, 48 h, values are per cent of control
[4] = Growth inhibition of human SKOV3 cells at 10 uM after 48 hrs by sulforhodamine B assay; details: SK-OV-3, 48 h, values are per cent of control
[5] = Growth inhibition of human UACC62 cells at 10 uM after 48 hrs by sulforhodamine B assay; details: UACC-62, 48 h, values are per cent of control
[6] = Growth inhibition of human NCI-ADR-RES cells at 10 uM after 48 hrs by sulforhodamine B assay; details: values are per cent of control
[7] = Growth inhibition of human IGROV1 cells at 10 uM after 48 hrs by sulforhodamine B assay; details: IGROV-1, 48 h, values are per cent of control
[8] = Growth inhibition of human HCT116 cells at 10 uM after 48 hrs by sulforhodamine B assay; details: HCT-116, 48 h, values are per cent of control
NCI-H460 = test: Growth inhibition of human NCI-H460 cells at 10 uM after 48 hrs by sulforhodamine B assay; details: NCI-H460, 48 h, values are per cent of control
U-251 = test: Growth inhibition of human U251 cells at 10 uM after 48 hrs by sulforhodamine B assay; details: U-251, 48 h, values are per cent of control
[9] = Growth inhibition of human HCC2998 cells at 10 uM after 48 hrs by sulforhodamine B assay; details: HCC 2998, 48 h, values are per cent of control
[10] = Growth inhibition of human SNB75 cells at 10 uM after 48 hrs by sulforhodamine B assay; details: SNB-75, 48 h, values are per cent of control
[11] = Growth inhibition of human Hs 578T cells at 10 uM after 48 hrs by sulforhodamine B assay; details: values are per cent of control
[12] = Growth inhibition of human RXF393 cells at 10 uM after 48 hrs by sulforhodamine B assay; details: RXF 393, 48 h, values are per cent of control
[13] = Growth inhibition of human SF268 cells at 10 uM after 48 hrs by sulforhodamine B assay; details: SF-268, 48 h, values are per cent of control
[14] = Growth inhibition of human Caki1 cells at 10 uM after 48 hrs by sulforhodamine B assay; details: CAKI-1, 48 h, values are per cent of control
SK-MEL-2 = test: Growth inhibition of human SK-MEL-2 cells at 10 uM after 48 hrs by sulforhodamine B assay; details: SK-MEL-2, 48 h, values are per cent of control
[15] = Growth inhibition of human SF295 cells at 10 uM after 48 hrs by sulforhodamine B assay; details: SF-295, 48 h, values are per cent of control
SK-MEL-28 = test: Growth inhibition of human SK-MEL-28 cells at 10 uM after 48 hrs by sulforhodamine B assay; details: SK-MEL-28, 48 h, values are per cent of control
NCI-H522 = test: Growth inhibition of human NCI-H522 cells at 10 uM after 48 hrs by sulforhodamine B assay; details: NCI-H522, 48 h, values are per cent of control
[16] = Growth inhibition of human SNB19 cells at 10 uM after 48 hrs by sulforhodamine B assay; details: SNB-19, 48 h, values are per cent of control
[17] = Growth inhibition of human HOP62 cells at 10 uM after 48 hrs by sulforhodamine B assay; details: HOP-62, 48 h, values are per cent of control
[18] = Growth inhibition of human SW620 cells at 10 uM after 48 hrs by sulforhodamine B assay; details: SW-620, 48 h, values are per cent of control
NCI-H322M = test: Growth inhibition of human NCI-H322M cells at 10 uM after 48 hrs by sulforhodamine B assay; details: values are per cent of control
NCI-H226 = test: Growth inhibition of human NCI-H226 cells at 10 uM after 48 hrs by sulforhodamine B assay; details: NCI-H226, 48 h, values are per cent of control
M14 = test: Growth inhibition of human M14 cells at 10 uM after 48 hrs by sulforhodamine B assay; details: M14, 48 h, values are per cent of control
SN12C = test: Growth inhibition of human SN12C cells at 10 uM after 48 hrs by sulforhodamine B assay; details: values are per cent of control
[19] = Growth inhibition of human COLO205 cells at 10 uM after 48 hrs by sulforhodamine B assay; details: COLO 205, 48 h, values are per cent of control
K562 = test: Growth inhibition of human K562 cells at 10 uM after 48 hrs by sulforhodamine B assay; details: K562, 48 h, values are per cent of control
A498 = test: Growth inhibition of human A498 cells at 10 uM after 48 hrs by sulforhodamine B assay; details: A498, 48 h, values are per cent of control
[20] = Growth inhibition of human OVCAR4 cells at 10 uM after 48 hrs by sulforhodamine B assay; details: OVCAR-4, 48 h, values are per cent of control
SR = test: Growth inhibition of human SR cells at 10 uM after 48 hrs by sulforhodamine B assay; details: values are per cent of control
[21] = Growth inhibition of human HCT15 cells at 10 uM after 48 hrs by sulforhodamine B assay; details: HCT-15, 48 h, values are per cent of control
786-0 = test: Growth inhibition of human 786-0 cells at 10 uM after 48 hrs by sulforhodamine B assay; details: 786-0, 48 h, values are per cent of control
NCI-H23 = test: Growth inhibition of human NCI-H23 cells at 10 uM after 48 hrs by sulforhodamine B assay; details: NCI-H23, 48 h, values are per cent of control
MDA-MB-468 = test: Growth inhibition of human MDA-MB-468 cells at 10 uM after 48 hrs by sulforhodamine B assay; details: MDA-MB-468, 48 h, values are per cent of control
[22] = Growth inhibition of human SF539 cells at 10 uM after 48 hrs by sulforhodamine B assay; details: SF-539, 48 h, values are per cent of control
ACHN = test: Growth inhibition of human ACHN cells at 10 uM after 48 hrs by sulforhodamine B assay; details: values are per cent of control
T47D = test: Growth inhibition of human T47D cells at 10 uM after 48 hrs by sulforhodamine B assay; details: values are per cent of control

SMILES | growth, % of control at 10 µM [1] [%] | growth, % of control at 10 µM (MDA-MB-435) [%] | growth, % of control at 10 µM [2] [%] | growth, % of control at 10 µM [3] [%] | growth, % of control at 10 µM [4] [%] | growth, % of control at 10 µM [5] [%] | growth, % of control at 10 µM [6] [%] | growth, % of control at 10 µM [7] [%] | growth, % of control at 10 µM [8] [%] | growth, % of control at 10 µM (NCI-H460) [%] | growth, % of control at 10 µM (U-251) [%] | growth, % of control at 10 µM [9] [%] | growth, % of control at 10 µM [10] [%] | growth, % of control at 10 µM [11] [%] | growth, % of control at 10 µM [12] [%] | growth, % of control at 10 µM [13] [%] | growth, % of control at 10 µM [14] [%] | growth, % of control at 10 µM (SK-MEL-2) [%] | growth, % of control at 10 µM [15] [%] | growth, % of control at 10 µM (SK-MEL-28) [%] | also measured
COc1ccc(/C(C#N)=C/c2ccc3c(c2)OCO3)cc1 | 93.9 | 77.9 | 85.7 | 95 | 88.6 | 69.2 | 75.3 | 84.6 | 64.9 | 64.3 | 80.9 | 80 | 80.8 | 92.4 | 91.4 | 92 | 78.2 | 90.1 | 80.8 | 81.4 | growth, % of control at 10 µM (NCI-H522): 90.5%; growth, % of control at 10 µM [16]: 49.4%; growth, % of control at 10 µM [17]: 86.6%; growth, % of control at 10 µM [18]: 84.9%; growth, % of control at 10 µM (NCI-H322M): 94.7%; growth, % of control at 10 µM (NCI-H226): 86.6%; growth, % of control at 10 µM (M14): 10.4%; growth, % of control at 10 µM (SN12C): 84.3%; growth, % of control at 10 µM [19]: 76.2%; growth, % of control at 10 µM (K562): 37.9%; growth, % of control at 10 µM (A498): 63.3%; growth, % of control at 10 µM [20]: 76.4%; growth, % of control at 10 µM (SR): 39.3%; growth, % of control at 10 µM [21]: 59%; growth, % of control at 10 µM (786-0): 95.4%; growth, % of control at 10 µM (NCI-H23): 96.1%; growth, % of control at 10 µM (MDA-MB-468): 48.6%; growth, % of control at 10 µM [22]: 83.7%; growth, % of control at 10 µM (ACHN): 95.3%; growth, % of control at 10 µM (T47D): 70%
COc1ccc(/C=C(\C#N)c2ccc3c(c2)OCO3)cn1 | 95 | 37.2 | 80.4 | 97.4 | 83.1 | 79.9 | 86 | 90.6 | 82.6 | 95.2 | 84.5 | 93.2 | 57 | 101 | 86.5 | 91 | 75.3 | 93.2 | 89.3 | 95.1 | growth, % of control at 10 µM (NCI-H522): 79.8%; growth, % of control at 10 µM [16]: 96.4%; growth, % of control at 10 µM [17]: 88.1%; growth, % of control at 10 µM [18]: 86.1%; growth, % of control at 10 µM (NCI-H322M): 98.3%; growth, % of control at 10 µM (NCI-H226): 93.3%; growth, % of control at 10 µM (M14): 91.1%; growth, % of control at 10 µM (SN12C): 92.6%; growth, % of control at 10 µM [19]: 97.6%; growth, % of control at 10 µM (K562): 64.2%; growth, % of control at 10 µM (A498): 70.8%; growth, % of control at 10 µM [20]: 81.6%; growth, % of control at 10 µM (SR): 50.1%; growth, % of control at 10 µM [21]: 78%; growth, % of control at 10 µM (786-0): 107%; growth, % of control at 10 µM (NCI-H23): 93.7%; growth, % of control at 10 µM (MDA-MB-468): 60.8%; growth, % of control at 10 µM [22]: 83.1%; growth, % of control at 10 µM (ACHN): 93.4%; growth, % of control at 10 µM (T47D): 81%
